Laboratory results taken from patent US12246068B2, “Enzymatically activatable peptide-redox modulator conjugates and use thereof” (BRANDEIS UNIVERSITY, priority 2017, dated 2025).
Where a SMILES comes first, the peptide text is derived from it. [ ]: non-standard residue; d: D form. The star is where a group is joined. X1 = O=C(CCC[P+](c1ccccc1)(c1ccccc1)c1ccccc1)*; d(pY) = N[C@H](Cc1ccc(OP(=O)(O)O)cc1)C(=O)O; pY = N[C@@H](Cc1ccc(OP(=O)(O)O)cc1)C(=O)O; NBD = O=[N+]([O-])c1ccc(*)c2nonc12; Cbz = O=C(OCc1ccccc1)*; βAla = NCCC(=O)O; CH2F = FC*

Experiments:
Saos2 cells = test: MTT cell viability assay, Saos2; format: cell-based, human; settings: for cytotoxicity to Saos2 cells: formed from the precursor by exogenous ALP, concentrations up to 200 μM; for IC50 against Saos2 cells / IC50: unstimulated Saos2; for IC50: read-out: IC50 against Saos2 cells; for cytotoxicity against Saos2 cell: even at 500 μM
Procedure: (§1) Saos2, HeLa, HepG2, T98G, MCF-7 and HS-5 cells were purchased from American-type Culture Collection (ATCC, USA). Saos2 cells were cultured in Macyo's 5A medium supplemented with 15% v/v fetal bovine serum, 100 U/mL penicillin and 100 μg/mL streptomycin. HeLa, HepG2, T98G, MCF-7 cells were cultured in MEM Medium supplemented with 10% v/v fetal bovine serum, HS-5 cells were cultured in Dulbecco's Modified Eagle's medium (DMEM) supplemented with 10% v fetal bovine serum (FBS), 100 U/mL penicillin and 100 μg/mL streptomycin. All cells were cultured at 37° C. in a humidified atmosphere of 5% CO2.
(§2) For the MTT Assay, all cells were seeded in a 96-well plate with the density of 1*10^4 cells per-well (total medium volume of 100 μL). 24 hours post seeding, the solutions with a serial of concentrations (5 concentrations) of different precursors were added to each well. Cells without the treatment of the precursors were used as the control. At designated time (24/48/72 hours), 10 μL MTT solution (5 mg/mL) was added to each well and incubated at 37° C. for another 4 h, and then 100 μL of SDS-HCl solution was added to stop the reduction reaction and dissolve the purple formazan. The absorbance of each well at 595 nm was measured by a multimode microplate reader. The cytotoxicity assay was performed three times and the average value of the three measurements was taken.
To investigate the cellular response to all the precursors, an MTT (3-(4,5-dimethylthiazol-2-yl)-2,5-diphenyl tetrazolium bromide) assay (Gerlier et al., J. Immunol. Methods 94:57 (1986), which is hereby incorporated by reference in its entirety) was first used to examine the viability of human osteosarcoma cells (Saos2, which expresses high level ALP (Farley et al., Metabolism 40:664 (1991), which is hereby incorporated by reference in its entirety)) cultured with the precursors. As a control, the viability of normal human bone marrow stromal cells (HS5) that express low level of ALP on cell surface was also examined (Zhou et al., Chem 1:246 (2016), which is hereby incorporated by reference in its entirety). […] In the presence of exogenous ALP, L-1P (or D-1P) turns into L-1 (or D-1), which is innocuous to Saos2 cells at the concentrations up to 200 μM. […] To investigate the retention of L-1 (or D-1) in the Saos2 cells, the cells were incubated with L-1P (D-1P, 50 μM) for different times. […] On the contrary, the concentration of D-1 decreases little after 6 h incubation. Moreover, the intracellular concentration of D-1 is 3.5 fold of that of L-1 at 6 h incubation, but the ratio increases to 10 fold at 24 h incubation (FIG. 8B).
Three kinds of established ALP inhibitors were used: L-phenylalanine (L-Phe) (Borgers, M. J., Histochem. Cytochem. 21:812 (1973), which is hereby incorporated by reference in its entirety), an efficient uncompetitive inhibitor of placental alkaline phosphatase (PLAP) levamisole, a well-known uncompetitive inhibitor of tissue-nonspecific alkaline phosphatase (TNAP) (Borgers, M. J., Histochem. Cytochem. 21:812 (1973), which is hereby incorporated by reference in its entirety) and CinnGEL 2Me (Zhu et al., Cancer Res. 67:10129 (2007), which is hereby incorporated by reference in its entirety), an inhibitor of protein tyrosine phosphatase (PTP1B) that localizes at the cytoplasmic face of the endoplasmic reticulum. […] Moreover, the PTP1B inhibitor (i.e., CinnGEL 2Me) is unable to rescue the cells, supporting the mechanism in FIG. 1 that EISA on the cell surface is the key processes for converting L-1P and D-1P to L-1 and D-1, respectively. To further confirm the role of ALPs on cell surface, the precursors were incubated together with ALP, which serves as an exogenous enzyme. The addition of ALP almost eliminates the cytotoxicity of the precursors. […]

[1] = system: T1, L-2P (NBD-βA-FFpYK, L enantiomer, with acetyl on the ε-amine of lysine)
T1 sequence: XFFXK

[2] = system: T2, L-1P (NBD-βA-FFpYK, L enantiomer, with TPP on the ε-amino group of lysine)
T2 sequence: XFFXK

[3] = system: T3, D-2P (NBD-βA-FFpYK, D enantiomer, with acetyl on the ε-amine of lysine)
T3 sequence: XFFXK

[4] = system: T4, D-1P (NBD-βA-FFpYK, D enantiomer, with TPP on the ε-amino group of lysine)
T4 sequence: XFFXK

selected Saos2 cell line = test: MTT assay on selected Saos2 cells after five weeks stimulation; format: cell-based, human
Procedure: as §2
Based on the above mechanism of cell death showing that L-1P (or D-1P) activates multiple death signaling pathways, it is believed that cancer cells unlikely would be able to evolve resistance toward this multiple targeting strategy. […] Such a plasticity should minimize the path to drug resistance. […]

HS5 cells = test: MTT cell viability assay, HS5; format: cell-based, human; settings: 100 μM
Procedure: as §1
as §2, with “taken. […]” for “taken.”

ALP = ALP catalyzed dephosphorylation of the precursors; format: biochemical; settings: alkaline phosphatase (ALP), isolated enzyme; substrate 0.1 wt %, ALP 0.1 U/mL, 37° C.; read-out: t1/2 of ALP catalyzed dephosphorylation (converted)
Procedure: After obtaining all the precursors in Example 1, their behaviors were evaluated for EISA in vitro by using TEM and static light scattering (SLS) to examine the nanostructures formed before and after the addition of ALP into the solutions of the precursors. […] As a contrast, D-1P (50 μM) forms slightly more regular fibrous structures with diameter of 8±2 nm, which then interact with each other to form dense 2D/3D networks. […] After 24 h, the percentages of enzymatic dephosphorylation of D-1P and L-1P are about 90% and 80%, respectively. […] After being formed by dephosphorylation, L-1 and D-1 form different nanostructures. […] Similar to L-1, D-1 forms aggregated hollow colloids with a larger mean diameter (106±2 nm) and slightly thicker layers (thickness of 6±2 nm). L-2P or D-2P (50 μM) forms amorphous aggregates after dissolving in PBS buffer (pH=7.4) (FIG. 5). While the addition of ALP converts L-2P to L-2 to form uniform nanofibers with diameter of 9±2 nm, the enzymatic conversion of D-2P to D-2 results in nanoscale aggregates with diameter of 16±2 nm. […] As a charged, steric-hindered motif being connected to the peptide backbone via a relatively flexible linker, TPP disrupts intermolecular packing to disfavor the formation of long nanofibers, but it promotes interparticle interaction to favor polymorphic aggregates before and after enzymatic dephosphorylation. […]

[5] = 100 μM, 48 h, with levamisole (1 mM)
[6] = 100 μM, 48 h, without inhibitor
[7] = 200 μM, 48 h, with levamisole (1 mM)
[8] = 200 μM, 48 h, without inhibitor
[9] = co-incubated with the targeting motif TPP (3), 48 h

## O=C(CCC[P+](c1ccccc1)(c1ccccc1)c1ccccc1)NCCCC[C@@H](NC(=O)[C@@H](Cc1ccc(O)cc1)NC(=O)[C@@H](Cc1ccccc1)NC(=O)[C@@H](Cc1ccccc1)NC(=O)CCNc1ccc([N+](=O)[O-])c2nonc12)C(=O)O [D-1] ({NBD-βAla}-[dF][dF][dY][dK](X1)-OH)
Saos2 cells
  cytotoxicity to Saos2 cells: innocuous

## alkaline phosphatase
[1]
  enzymatic conversion (dephosphorylation) seen by TEM: the addition of ALP converts L-2P to L-2 to form uniform nanofibers
[2]
  percentage of enzymatic dephosphorylation after 24 h: the percentages of enzymatic dephosphorylation of D-1P and L-1P are about 90% and 80%, respectively
  t1/2 of ALP catalyzed dephosphorylation (substrate 0.1 wt %, ALP 0.1 U/mL): The t1/2 was determined to be 0.55 h and 1.14 h for D-1P and L-1P, respectively
[3]
  enzymatic conversion (dephosphorylation) seen by TEM: the enzymatic conversion of D-2P to D-2 results in nanoscale aggregates
[4]
  percentage of enzymatic dephosphorylation after 24 h: the percentages of enzymatic dephosphorylation of D-1P and L-1P are about 90% and 80%, respectively
  t1/2 of ALP catalyzed dephosphorylation (substrate 0.1 wt %, ALP 0.1 U/mL): The t1/2 was determined to be 0.55 h and 1.14 h for D-1P and L-1P, respectively

## O=C(CCC[P+](c1ccccc1)(c1ccccc1)c1ccccc1)NCCCC[C@@H](NC(=O)[C@@H](Cc1ccc(OP(=O)(O)O)cc1)NC(=O)[C@@H](Cc1ccccc1)NC(=O)[C@@H](Cc1ccccc1)NC(=O)CCNc1ccc([N+](=O)[O-])c2nonc12)C(=O)O [D-1P] ({NBD-βAla}-[dF][dF][d(pY)][dK](X1)-OH)
Saos2 cells; [5]
  cell viability of Saos2 cells: 66.0%
Saos2 cells; [6]
  cell viability of Saos2 cells: 11.5%
Saos2 cells; [7]
  cell viability of Saos2 cells: 53.3%
Saos2 cells; [8]
  cell viability of Saos2 cells: 1.8%
Saos2 cells; 48 h
  IC50 against Saos2 cells: 57.4 ± 2.5 µg/mL
  IC50: 46 ± 2 µM
Selected Saos2 cell line; cells selected by five weeks stimulation of D-1P (10 to 50 μM), read-out: IC50 against Saos2 cells after five weeks stimulation
  IC50: 35.2 µM
HS5 cells
  cytotoxicity against HS5 cells: almost innocuous
ALP
  half-life at 0.1 wt %: 33 min

## O=C(CCC[P+](c1ccccc1)(c1ccccc1)c1ccccc1)NCCCC[C@H](NC(=O)[C@H](Cc1ccc(OP(=O)(O)O)cc1)NC(=O)[C@H](Cc1ccccc1)NC(=O)[C@H](Cc1ccccc1)NC(=O)CCNc1ccc([N+](=O)[O-])c2nonc12)C(=O)O [L-1P] ({NBD-βAla}-FF[pY]K(X1)-OH)
Saos2 cells; 50 μM, 48 h
  cell viability of unstimulated Saos2: 71.7%
Saos2 cells; [5]
  cell viability of Saos2 cells: 65.3%
Saos2 cells; [6]
  cell viability of Saos2 cells: 21.6%
Saos2 cells; [7]
  cell viability of Saos2 cells: 50.5%
Saos2 cells; [8]
  cell viability of Saos2 cells: 2.1%
Saos2 cells; 48 h
  IC50 against Saos2 cells: 76.1 ± 2.5 µg/mL
  IC50: 61 ± 2 µM
Selected Saos2 cell line; 50 μM, 48 h, after five weeks stimulation
  cell viability of the selected cells: 20.5%
HS5 cells
  cytotoxicity against HS5 cells: almost innocuous
ALP
  half-life at 0.1 wt %: 68.4 min

## COC(=O)C[C@H](NC(=O)[C@H](C)NC(=O)[C@@H](NC(=O)OCc1ccccc1)C(C)C)C(=O)CF [zVAD-fmk, reference compound] (Cbz-Val-Ala-Asp(OMe)-CH2F)
Saos2 cells; 45 μM, by itself
  toxicity on Saos2 cells: no toxicity

## CC(=O)NCCCC[C@@H](NC(=O)[C@@H](Cc1ccc(OP(=O)(O)O)cc1)NC(=O)[C@@H](Cc1ccccc1)NC(=O)[C@@H](Cc1ccccc1)NC(=O)CCNc1ccc([N+](=O)[O-])c2nonc12)C(=O)O [D-2P] ({NBD-βAla}-[dF][dF][d(pY)][dK](Ac)-OH)
Saos2 cells; by itself, 48 h
  cytotoxicity against Saos2 cell: hardly exhibits cytotoxicity
Saos2 cells; [9]
  cytotoxicity against Saos2 cell: hardly exhibits cytotoxicity

## O=C(CCC[P+](c1ccccc1)(c1ccccc1)c1ccccc1)NCCCC[C@H](NC(=O)[C@H](Cc1ccc(O)cc1)NC(=O)[C@H](Cc1ccccc1)NC(=O)[C@H](Cc1ccccc1)NC(=O)CCNc1ccc([N+](=O)[O-])c2nonc12)C(=O)O [L-1] ({NBD-βAla}-FFYK(X1)-OH)
Saos2 cells
  cytotoxicity to Saos2 cells: innocuous

## CC(=O)NCCCC[C@H](NC(=O)[C@H](Cc1ccc(OP(=O)(O)O)cc1)NC(=O)[C@H](Cc1ccccc1)NC(=O)[C@H](Cc1ccccc1)NC(=O)CCNc1ccc([N+](=O)[O-])c2nonc12)C(=O)O [L-2P] ({NBD-βAla}-FF[pY]K(Ac)-OH)
Saos2 cells; by itself, 48 h
  cytotoxicity against Saos2 cell: hardly exhibits cytotoxicity
Saos2 cells; [9]
  cytotoxicity against Saos2 cell: hardly exhibits cytotoxicity
